Results as given in PubChem BioAssay (NCI).
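1) Cells in 96-well plates. 2) Compound, 48 h, 5 concentrations. 3) Linear interpolation between surrounding doses. 4) Unreached endpoint = highest concentration. At the TGI there is no net growth.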

What was measured:
Test in all cases: NCI tumour cell line growth inhibition, 48 h
BT-549 breast = test system: BT-549 breast
SR leukemia = test system: SR leukemia
NCI-H460 lung = test system: NCI-H460 lung
SW-620 colon = test system: SW-620 colon
786-0 renal = test system: 786-0 renal
HCT-15 colon = test system: HCT-15 colon
SK-MEL-2 melanoma = test system: SK-MEL-2 melanoma
COLO 205 colon = test system: COLO 205 colon
KM12 colon = test system: KM12 colon
OVCAR-8 ovarian = test system: OVCAR-8 ovarian
HOP-92 NSCLC = test system: HOP-92 NSCLC
EKVX NSCLC = test system: EKVX NSCLC
SK-OV-3 ovarian = test system: SK-OV-3 ovarian
MDA-MB-231 breast = test system: MDA-MB-231 breast
M14 melanoma = test system: M14 melanoma
SNB-75 CNS = test system: SNB-75 CNS
HL-60(TB) leukemia = test system: HL-60(TB) leukemia
MCF7 breast = test system: MCF7 breast
SF-539 CNS = test system: SF-539 CNS
RPMI-8226 leukemia = test system: RPMI-8226 leukemia
MOLT-4 leukemia = test system: MOLT-4 leukemia
NCI-H23 lung = test system: NCI-H23 lung
OVCAR-3 ovarian = test system: OVCAR-3 ovarian
K-562 leukemia = test system: K-562 leukemia
T-47D breast = test system: T-47D breast
A498 renal = test system: A498 renal
IGROV1 ovarian = test system: IGROV1 ovarian
UO-31 renal = test system: UO-31 renal
HCC-2998 colon = test system: HCC-2998 colon
NCI-H522 lung = test system: NCI-H522 lung
ACHN renal = test system: ACHN renal
OVCAR-4 ovarian = test system: OVCAR-4 ovarian
UACC-62 melanoma = test system: UACC-62 melanoma
MDA-N = test system: MDA-N
U251 CNS = test system: U251 CNS
SF-268 CNS = test system: SF-268 CNS
DU-145 prostate = test system: DU-145 prostate
SN12C renal = test system: SN12C renal
CCRF-CEM leukemia = test system: CCRF-CEM leukemia
HS 578T breast = test system: HS 578T breast
HCT-116 colon = test system: HCT-116 colon
LOX IMVI melanoma = test system: LOX IMVI melanoma
SK-MEL-28 melanoma = test system: SK-MEL-28 melanoma
NCI/ADR-RES ovarian = test system: NCI/ADR-RES ovarian
UACC-257 melanoma = test system: UACC-257 melanoma
TK-10 renal = test system: TK-10 renal
CAKI-1 renal = test system: CAKI-1 renal
SF-295 CNS = test system: SF-295 CNS
A549 NSCLC = test system: A549 NSCLC
OVCAR-5 ovarian = test system: OVCAR-5 ovarian
SNB-19 CNS = test system: SNB-19 CNS
NCI-H226 lung = test system: NCI-H226 lung
RXF 393 renal = test system: RXF 393 renal
MDA-MB-435 = test system: MDA-MB-435
SK-MEL-5 melanoma = test system: SK-MEL-5 melanoma
HT29 colon = test system: HT29 colon
PC-3 prostate = test system: PC-3 prostate
HOP-62 NSCLC = test system: HOP-62 NSCLC
MALME-3M melanoma = test system: MALME-3M melanoma

## CC(C)(C)C(=O)O[C@H]1C=C[C@@H](O)[C@@H]2[C@H]1[C@@H]1C=C[C@H]2C1
BT-549 breast
  TGI: > 100 µM
SR leukemia
  TGI: > 100 µM
NCI-H460 lung
  TGI: > 100 µM
SW-620 colon
  TGI: > 100 µM
786-0 renal
  TGI: > 100 µM
HCT-15 colon
  TGI: 83.5 µM
SK-MEL-2 melanoma
  TGI: > 100 µM
COLO 205 colon
  TGI: > 100 µM
KM12 colon
  TGI: 12.4 µM
OVCAR-8 ovarian
  TGI: > 100 µM
HOP-92 NSCLC
  TGI: > 100 µM
EKVX NSCLC
  TGI: > 100 µM
SK-OV-3 ovarian
  TGI: > 100 µM
MDA-MB-231 breast
  TGI: > 100 µM
M14 melanoma
  TGI: > 100 µM
SNB-75 CNS
  TGI: > 100 µM
HL-60(TB) leukemia
  TGI: 33.8 µM
MCF7 breast
  TGI: 39.9 µM
SF-539 CNS
  TGI: 92.9 µM
RPMI-8226 leukemia
  TGI: 83 µM
MOLT-4 leukemia
  TGI: 83.8 µM
NCI-H23 lung
  TGI: 48 µM
OVCAR-3 ovarian
  TGI: > 100 µM
K-562 leukemia
  TGI: > 100 µM
T-47D breast
  TGI: > 100 µM
A498 renal
  TGI: 50.8 µM
IGROV1 ovarian
  TGI: > 100 µM
UO-31 renal
  TGI: > 100 µM
HCC-2998 colon
  TGI: 32.4 µM
NCI-H522 lung
  TGI: 79.8 µM
ACHN renal
  TGI: > 100 µM
OVCAR-4 ovarian
  TGI: 60 µM
UACC-62 melanoma
  TGI: > 100 µM
MDA-N
  TGI: > 100 µM
U251 CNS
  TGI: > 100 µM
SF-268 CNS
  TGI: > 100 µM
DU-145 prostate
  TGI: > 100 µM
SN12C renal
  TGI: 41 µM
CCRF-CEM leukemia
  TGI: > 100 µM
HS 578T breast
  TGI: > 100 µM
HCT-116 colon
  TGI: > 100 µM
LOX IMVI melanoma
  TGI: > 100 µM
SK-MEL-28 melanoma
  TGI: 59.2 µM
NCI/ADR-RES ovarian
  TGI: 96.1 µM
UACC-257 melanoma
  TGI: 27.1 µM
TK-10 renal
  TGI: > 100 µM
CAKI-1 renal
  TGI: > 100 µM
SF-295 CNS
  TGI: > 100 µM
A549 NSCLC
  TGI: > 100 µM
OVCAR-5 ovarian
  TGI: 6.42 µM
SNB-19 CNS
  TGI: > 100 µM

## CC(=O)Nc1ccc(/C=C/[N+](=O)[O-])cc1
NCI-H226 lung
  TGI: 3.94 µM
BT-549 breast
  TGI: 12.4 µM
NCI-H460 lung
  TGI: 20.7 µM
RXF 393 renal
  TGI: 6.43 µM
SW-620 colon
  TGI: 11 µM
786-0 renal
  TGI: 7.61 µM
HCT-15 colon
  TGI: > 19.6 µM
SK-MEL-2 melanoma
  TGI: 25.6 µM
COLO 205 colon
  TGI: 7.28 µM
KM12 colon
  TGI: 26.7 µM
OVCAR-8 ovarian
  TGI: 15.4 µM
HOP-92 NSCLC
  TGI: 17.4 µM
EKVX NSCLC
  TGI: 12.9 µM
SK-OV-3 ovarian
  TGI: 24.1 µM
MDA-MB-231 breast
  TGI: 5.12 µM
M14 melanoma
  TGI: 7.01 µM
SNB-75 CNS
  TGI: 7.64 µM
HL-60(TB) leukemia
  TGI: 6.44 µM
MCF7 breast
  TGI: 9.72 µM
SF-539 CNS
  TGI: 6.35 µM
MDA-MB-435
  TGI: 9.23 µM
RPMI-8226 leukemia
  TGI: 4.73 µM
SK-MEL-5 melanoma
  TGI: 5.97 µM
MOLT-4 leukemia
  TGI: 4.37 µM
NCI-H23 lung
  TGI: 10.9 µM
OVCAR-3 ovarian
  TGI: 10.7 µM
K-562 leukemia
  TGI: 8.57 µM
T-47D breast
  TGI: > 27.9 µM
A498 renal
  TGI: 15.2 µM
HT29 colon
  TGI: 3.93 µM
IGROV1 ovarian
  TGI: 7.35 µM
UO-31 renal
  TGI: 4.58 µM
NCI-H522 lung
  TGI: 0.815 µM
PC-3 prostate
  TGI: 16.7 µM
ACHN renal
  TGI: 9.44 µM
OVCAR-4 ovarian
  TGI: 7.97 µM
UACC-62 melanoma
  TGI: 4 µM
MDA-N
  TGI: 6.59 µM
U251 CNS
  TGI: 11.6 µM
SF-268 CNS
  TGI: 11.2 µM
HOP-62 NSCLC
  TGI: 21.4 µM
DU-145 prostate
  TGI: > 43.4 µM
SN12C renal
  TGI: 9.8 µM
CCRF-CEM leukemia
  TGI: 7.48 µM
HS 578T breast
  TGI: 32.6 µM
HCT-116 colon
  TGI: 6.07 µM
LOX IMVI melanoma
  TGI: 3.91 µM
SK-MEL-28 melanoma
  TGI: 4.13 µM
NCI/ADR-RES ovarian
  TGI: 31.3 µM
UACC-257 melanoma
  TGI: 17 µM
TK-10 renal
  TGI: 6.89 µM
MALME-3M melanoma
  TGI: 17.7 µM
CAKI-1 renal
  TGI: 2.78 µM
SF-295 CNS
  TGI: 14 µM
A549 NSCLC
  TGI: 17.6 µM
OVCAR-5 ovarian
  TGI: 9.25 µM
SNB-19 CNS
  TGI: 20.5 µM
